Laboratory results reported in PubChem BioAssay AID1259407 (Chemical Carcinogenesis Research Information System (CCRIS), 2018).
Calls of active or inactive are those of the source. The rule behind the calls is not given here.

System: CCRIS mutagenicity, Ames/micronucleus/aberration tests
Experiment: CCRIS mutagenicity studies
[1] = Test System: AMES SALMONELLA TYPHIMURIUM, Strain/Indicator: TA98, Metabolic Activation: NONE, Method: PREINCUBATION
[2] = Test System: AMES SALMONELLA TYPHIMURIUM, Strain/Indicator: TA100, Metabolic Activation: NONE, Method: PREINCUBATION
[3] = Test System: AMES SALMONELLA TYPHIMURIUM, Strain/Indicator: TA98, Metabolic Activation: NONE, Method: STANDARD PLATE
[4] = Test System: AMES SALMONELLA TYPHIMURIUM, Strain/Indicator: TA98, Metabolic Activation: RAT, LIVER, S-9, AROCLOR 1254, Method: STANDARD PLATE
[5] = Test System: AMES SALMONELLA TYPHIMURIUM, Strain/Indicator: TA100, Metabolic Activation: NONE, Method: STANDARD PLATE
[6] = Test System: AMES SALMONELLA TYPHIMURIUM, Strain/Indicator: TA100, Metabolic Activation: RAT, LIVER, S-9, AROCLOR 1254, Method: STANDARD PLATE
[7] = Test System: AMES SALMONELLA TYPHIMURIUM, Strain/Indicator: TA1537, Metabolic Activation: NONE, Method: STANDARD PLATE
[8] = Test System: AMES SALMONELLA TYPHIMURIUM, Strain/Indicator: TA1537, Metabolic Activation: RAT, LIVER, S-9, AROCLOR 1254, Method: STANDARD PLATE

CN(C)c1ccc(N)cc1
mutagenic call (End Point: IN VITRO CHROMOSOMAL ABERRATIONS, Test System: CHINESE HAMSTER LUNG CELLS (CHL), Metabolic Activation: NONE): active; positive (structural changes) | mutagenic call (End Point: IN VITRO CHROMOSOMAL ABERRATIONS, Test System: CHINESE HAMSTER LUNG CELLS (CHL), Metabolic Activation: RAT, LIVER, S-9, KC-400): inactive; negative; authors describe results at highest dose as equivocal | mutagenic call (End Point: IN VITRO CHROMOSOMAL ABERRATIONS, Test System: CHINESE HAMSTER OVARY CELLS (CHO), Metabolic Activation: NONE): inactive; positive at highest dose; authors describe overall results as negative | mutagenic call (End Point: IN VITRO CHROMOSOMAL ABERRATIONS, Test System: CHINESE HAMSTER OVARY CELLS (CHO), Metabolic Activation: RAT, LIVER, S-9, AROCLOR 1254): inactive; negative | mutagenic call (Test System: AMES SALMONELLA TYPHIMURIUM, Strain/Indicator: TA98, Metabolic Activation: HAMSTER, LIVER, S-9, AROCLOR 1254 (30%), Method: PREINCUBATION): active; positive | mutagenic call [1]: inactive; negative | mutagenic call (Test System: AMES SALMONELLA TYPHIMURIUM, Strain/Indicator: TA98, Metabolic Activation: RAT, LIVER, S-9, AROCLOR 1254 (30%), Method: PREINCUBATION): active; positive | mutagenic call (Test System: AMES SALMONELLA TYPHIMURIUM, Strain/Indicator: TA100, Metabolic Activation: HAMSTER, LIVER, S-9, AROCLOR 1254 (30%), Method: PREINCUBATION): inactive; negative | mutagenic call [2]: inactive; negative | mutagenic call (Test System: AMES SALMONELLA TYPHIMURIUM, Strain/Indicator: TA100, Metabolic Activation: RAT, LIVER, S-9, AROCLOR 1254 (30%), Method: PREINCUBATION): inactive; negative | mutagenic call (Test System: Ames Salmonella typhimurium, Strain/Indicator: TA102, Metabolic Activation: None, Method: Preincubation): inactive; negative | mutagenic call (Test System: Ames Salmonella typhimurium, Strain/Indicator: TA102, Metabolic Activation: Rat, Liver, S9, Aroclor 1254, Method: Preincubation): active; positive | mutagenic call (Test System: Ames Salmonella typhimurium, Strain/Indicator: TA104, Metabolic Activation: None, Method: Preincubation): inactive; negative | mutagenic call (Test System: Ames Salmonella typhimurium, Strain/Indicator: TA104, Metabolic Activation: Rat, Liver, S9, Aroclor 1254, Method: Preincubation): active; positive

CCc1cn([C@H]2C[C@H](O)[C@@H](CO)O2)c(=O)[nH]c1=O
mutagenic call (Test System: AMES SALMONELLA TYPHIMURIUM, Strain/Indicator: TA97, Metabolic Activation: NONE, Method: PREINCUBATION): inactive; negative | mutagenic call (Test System: AMES SALMONELLA TYPHIMURIUM, Strain/Indicator: TA97, Metabolic Activation: RAT, LIVER, S-9, AROCLOR 1254, Method: PREINCUBATION): inactive; negative | mutagenic call [1]: inactive; negative | mutagenic call [3]: inactive; negative | mutagenic call (Test System: AMES SALMONELLA TYPHIMURIUM, Strain/Indicator: TA98, Metabolic Activation: RAT, LIVER, S-9, AROCLOR 1254, Method: PREINCUBATION): inactive; negative | mutagenic call [4]: inactive; negative | mutagenic call [2]: inactive; negative | mutagenic call [5]: inactive; negative | mutagenic call (Test System: AMES SALMONELLA TYPHIMURIUM, Strain/Indicator: TA100, Metabolic Activation: RAT, LIVER, S-9, AROCLOR 1254, Method: PREINCUBATION): inactive; negative | mutagenic call [6]: inactive; negative | mutagenic call (Test System: AMES SALMONELLA TYPHIMURIUM, Strain/Indicator: TA102, Metabolic Activation: NONE, Method: PREINCUBATION): inactive; negative | mutagenic call (Test System: AMES SALMONELLA TYPHIMURIUM, Strain/Indicator: TA102, Metabolic Activation: RAT, LIVER, S-9, AROCLOR 1254, Method: PREINCUBATION): inactive; negative | mutagenic call (Test System: AMES SALMONELLA TYPHIMURIUM, Strain/Indicator: TA104, Metabolic Activation: NONE, Method: PREINCUBATION): inactive; negative | mutagenic call (Test System: AMES SALMONELLA TYPHIMURIUM, Strain/Indicator: TA104, Metabolic Activation: RAT, LIVER, S-9, AROCLOR 1254, Method: PREINCUBATION): inactive; negative | mutagenic call (Test System: AMES SALMONELLA TYPHIMURIUM, Strain/Indicator: TA1535, Metabolic Activation: NONE, Method: PREINCUBATION): inactive; negative | mutagenic call (Test System: AMES SALMONELLA TYPHIMURIUM, Strain/Indicator: TA1535, Metabolic Activation: RAT, LIVER, S-9, AROCLOR 1254, Method: PREINCUBATION): inactive; negative | mutagenic call (Test System: AMES SALMONELLA TYPHIMURIUM, Strain/Indicator: TA1537, Metabolic Activation: NONE, Method: PREINCUBATION): inactive; negative | mutagenic call [7]: inactive; negative | mutagenic call (Test System: AMES SALMONELLA TYPHIMURIUM, Strain/Indicator: TA1537, Metabolic Activation: RAT, LIVER, S-9, AROCLOR 1254, Method: PREINCUBATION): inactive; negative | mutagenic call [8]: inactive; negative | mutagenic call (Test System: AMES SALMONELLA TYPHIMURIUM, Strain/Indicator: TA1538, Metabolic Activation: NONE, Method: PREINCUBATION): inactive; negative | mutagenic call (Test System: AMES SALMONELLA TYPHIMURIUM, Strain/Indicator: TA1538, Metabolic Activation: RAT, LIVER, S-9, AROCLOR 1254, Method: PREINCUBATION): inactive; negative | mutagenic call (Test System: CHINESE HAMSTER V-79, Strain/Indicator: V-79/8-AZAGUANINE, Metabolic Activation: NONE): inactive; negative

Nc1ncnc2c1ncn2[C@H]1CC[C@@H](CO)O1
mutagenic call (Test System: AMES SALMONELLA TYPHIMURIUM, Strain/Indicator: TA98, Metabolic Activation: HAMSTER, LIVER, S-9, AROCLOR 1254, Method: STANDARD PLATE): inactive; negative | mutagenic call [3]: inactive; negative | mutagenic call [4]: inactive; negative | mutagenic call (Test System: AMES SALMONELLA TYPHIMURIUM, Strain/Indicator: TA100, Metabolic Activation: HAMSTER, LIVER, S-9, AROCLOR 1254, Method: STANDARD PLATE): inactive; negative | mutagenic call [5]: inactive; negative | mutagenic call [6]: inactive; negative | mutagenic call (Test System: AMES SALMONELLA TYPHIMURIUM, Strain/Indicator: TA1535, Metabolic Activation: HAMSTER, LIVER, S-9, AROCLOR 1254, Method: STANDARD PLATE): inactive; negative | mutagenic call (Test System: AMES SALMONELLA TYPHIMURIUM, Strain/Indicator: TA1535, Metabolic Activation: NONE, Method: STANDARD PLATE): inactive; negative | mutagenic call (Test System: AMES SALMONELLA TYPHIMURIUM, Strain/Indicator: TA1535, Metabolic Activation: RAT, LIVER, S-9, AROCLOR 1254, Method: STANDARD PLATE): inactive; negative | mutagenic call (Test System: AMES SALMONELLA TYPHIMURIUM, Strain/Indicator: TA1537, Metabolic Activation: HAMSTER, LIVER, S-9, AROCLOR 1254, Method: STANDARD PLATE): inactive; negative | mutagenic call [7]: inactive; negative | mutagenic call [8]: inactive; negative | mutagenic call (Test System: AMES SALMONELLA TYPHIMURIUM, Strain/Indicator: TA1538, Metabolic Activation: HAMSTER, LIVER, S-9, AROCLOR 1254, Method: STANDARD PLATE): inactive; negative | mutagenic call (Test System: AMES SALMONELLA TYPHIMURIUM, Strain/Indicator: TA1538, Metabolic Activation: NONE, Method: STANDARD PLATE): inactive; negative | mutagenic call (Test System: AMES SALMONELLA TYPHIMURIUM, Strain/Indicator: TA1538, Metabolic Activation: RAT, LIVER, S-9, AROCLOR 1254, Method: STANDARD PLATE): inactive; negative | mutagenic call (Test System: MOUSE LYMPHOMA, Strain/Indicator: L5178Y (TK+/TK-), Metabolic Activation: NONE, Method: SUSPENSION/PLATE): active; positive. reevaluation of results: positive | mutagenic call (Test System: MOUSE LYMPHOMA, Strain/Indicator: L5178Y (TK+/TK-), Metabolic Activation: RAT, LIVER, S-9, AROCLOR 1254, Method: SUSPENSION/PLATE): active; positive. reevaluation of results: equivocal

COC(=O)[C@@H]1CS[C@@H]2C(Cl)=C(Cl)C(=O)N21
mutagenic call [5]: active; positive
